Blank lines part the entries; values can stand above or below the molecule they belong to. *1 amine or outer side, *2 acyl side, *3 side chain or, on linkers, in order; H or OH if unused. Where a SMILES comes first, the peptide text is derived from it. Where no end group is shown, it is not given here. Side-chain parts run from the residue outwards. [ ]: non-standard residue; d: D form. The star is where a group is joined. X3 = CC(C)CCC[C@@H](C)[C@H]1CC[C@H]2[C@@H]3CC=C4C[C@@H](OC(=O)CCOCCOCCOCCOCCNC(=O)C*)CC[C@]4(C)[C@H]3CC[C@]12C; γGlu = O=C(O)[C@H](CCC(=O)[*:2])N[*:1]; mPEG2 40kDa = C3 = Cys(mPEG)2 40 kDa; Palmitoyl = CCCCCCCCCCCCCCCC(=O)*; Met(O) = CS(=O)CC[C@H](N)C(=O)O; Ac4c = NC1(C(=O)O)CCC1; Aib = CC(C)(N)C(=O)O
How the values were obtained:
hGCGR [1] = target: T1, hGCGR (Homo sapiens, UniProt P47871); experiment: cell-based cAMP assay as described in WO2008101017 (Table 11), hGCGR
T1 sequence (P47871 26-477): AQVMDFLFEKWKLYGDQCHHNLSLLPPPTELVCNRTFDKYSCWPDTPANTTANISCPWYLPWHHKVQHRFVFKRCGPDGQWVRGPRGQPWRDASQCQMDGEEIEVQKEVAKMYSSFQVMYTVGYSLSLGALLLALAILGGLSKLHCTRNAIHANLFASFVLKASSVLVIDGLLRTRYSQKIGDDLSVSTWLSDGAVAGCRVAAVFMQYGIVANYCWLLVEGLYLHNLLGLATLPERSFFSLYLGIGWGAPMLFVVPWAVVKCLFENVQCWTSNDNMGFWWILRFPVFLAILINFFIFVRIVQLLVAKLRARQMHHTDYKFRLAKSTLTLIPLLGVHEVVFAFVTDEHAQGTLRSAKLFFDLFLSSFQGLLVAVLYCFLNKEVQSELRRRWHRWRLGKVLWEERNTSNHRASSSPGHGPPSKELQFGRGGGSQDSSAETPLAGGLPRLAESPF
Description: This example presents tables showing the in vitro potencies of various peptide analogs at the human GLP-1 receptor (hGLP-1R) and the human glucagon receptor (hGCGR).

[2] = test system: human mast cell line LAD2; experiment: mast cell degranulation counterscreen, beta-hexosaminidase release; format: cell-based; settings: LAD2 cells, 30 minutes; read-out: Degranulation potency EC50
Method: LAD2 cells (50,000 cells/well, 96-well plate) were incubated with compounds for 30 minutes. The degranulation of LAD2 cells was determined by quantification of the β-hexosaminidase released into the supernatants and in cell lysates after hydrolysis of 4-methylumbelliferyl-N-acetyl-β-D-glucosaminide. Results are expressed as percentage of β-hexosaminidase release, calculated as percent of total content.

[3] = pI of the peptide analogs; settings: Table 10
hGCGR [4] = target: T1, hGCGR; experiment: fluorescence cell based cAMP assay, CHO cells stably expressing GCGR
Method: We initially screened peptides in fluorescence cell based assays that measure production of cyclic-AMP (cAMP), using CHO cell lines stably expressing either recombinant human GLP-1R or human GCGR. Determination of Mouse and human GLP-1R and GCGR Agonist Activity was essentially as follows. CHO cells stably expressing mouse or human GLP-1R or GCGR were grown in Iscove's Modified Dulbecco's Medium (IMDM), 10% FBS, 1 mM L-glutamine, penicillin-streptomycin (100 μ/mL) and 750 μg G418/mL for three-four days before harvesting using Enzymefree Dissociation Media (EFDM, Specialty Media). […] The assay was terminated with the addition of the LANCE kit Detection buffer as per the manufacturer's instructions. The plates were held an additional hour at room temperature, then increasing cAMP levels were detected by a decrease in TR-FRET signal as measured in an EnVision counter (PerkinElmer) in comparison to a standard curve of cAMP as per the manufacturer's instructions. Data were analyzed using the linear and nonlinear regression analysis software, GraphPad Prism.
The in vitro potencies shown in Table 10 or Table 11 were determined from the results of assays that were similar to either the cell-based cAMP assays described herein above (Table 10) or the cell-based cAMP assays described in International Published Application No. WO2008101017, which is incorporated herein in its entirety, in particular the cell-based cAMP assays described therein (Table 11).

Molecule: CSCC[C@H](NC(=O)[C@H](CC(C)C)NC(=O)[C@H](Cc1c[nH]c2ccccc12)NC(=O)[C@H](CCC(N)=O)NC(=O)[C@@H](NC(=O)[C@H](Cc1ccccc1)NC(=O)[C@H](CC(=O)O)NC(=O)[C@H](CCC(N)=O)NC(=O)[C@H](C)NC(=O)[C@H](C)NC(=O)[C@H](CCC(=O)O)NC(=O)[C@H](CO)NC(=O)[C@H](CC(=O)O)NC(=O)[C@H](CC(C)C)NC(=O)[C@H](Cc1ccc(O)cc1)NC(=O)[C@H](CCCCN)NC(=O)[C@H](CO)NC(=O)[C@H](Cc1ccc(O)cc1)NC(=O)[C@H](CC(=O)O)NC(=O)[C@H](CO)NC(=O)[C@@H](NC(=O)[C@H](Cc1ccccc1)NC(=O)[C@@H](NC(=O)CNC(=O)[C@H](CCC(N)=O)NC(=O)[C@@H](CO)NC(=O)[C@@H](N)Cc1c[nH]cn1)[C@@H](C)O)[C@@H](C)O)C(C)C)C(=O)N[C@@H](CC(N)=O)C(=O)N[C@H](C(=O)N[C@@H](CCCCN)C(=O)N[C@@H](CSCC(=O)NCCOCCOCCOCCOCCC(=O)O[C@H]1CC[C@@]2(C)C(=CC[C@H]3[C@@H]4CC[C@H]([C@H](C)CCCC(C)C)[C@@]4(C)CC[C@@H]32)C1)C(N)=O)[C@@H](C)O [OXM303] (H-H[dS]QGTFTSDYSKYLDSEAAQDFVQWLMNTKC(X3)-NH2; N-terminus assumed)
EC50 [2]: 100 nM

Molecule: CCCCCCCCCCCCCCCC(=O)N[C@@H](CCC(=O)N[C@@H](CCC(=O)NCCCC[C@H](NC(=O)[C@H](C)NC(=O)[C@H](CCCNC(=N)N)NC(=O)[C@H](CCCNC(=N)N)NC(=O)[C@H](CO)NC(=O)[C@H](CC(=O)O)NC(=O)[C@H](CC(C)C)NC(=O)[C@H](Cc1ccc(O)cc1)NC(=O)[C@H](CCCCN)NC(=O)[C@H](CO)NC(=O)[C@H](Cc1ccc(O)cc1)NC(=O)[C@H](CC(=O)O)NC(=O)[C@H](CO)NC(=O)[C@@H](NC(=O)[C@H](Cc1ccccc1)NC(=O)[C@@H](NC(=O)CNC(=O)[C@H](CCC(N)=O)NC(=O)[C@@H](CO)NC(=O)[C@@H](N)Cc1c[nH]cn1)[C@@H](C)O)[C@@H](C)O)C(=O)N[C@@H](CC(=O)O)C(=O)N[C@@H](Cc1ccccc1)C(=O)N[C@H](C(=O)N[C@@H](CCC(N)=O)C(=O)N[C@@H](Cc1c[nH]c2ccccc12)C(=O)N[C@@H](CC(C)C)C(=O)N[C@@H](CCSC)C(=O)N[C@@H](CC(N)=O)C(=O)N[C@H](C(=O)N[C@@H](CCCCN)C(=O)N[C@@H](CCC(N)=O)C(=O)O)[C@@H](C)O)C(C)C)C(=O)O)C(=O)O [OXM408]
EC50 [2]: > 10000 nM

Molecule: CCCCCCCCCCCCCCCC(=O)N[C@@H](CCC(=O)N[C@@H](CCC(=O)NCCCC[C@H](NC(=O)[C@H](C)NC(=O)[C@H](CCCNC(=N)N)NC(=O)[C@H](CCCNC(=N)N)NC(=O)[C@H](CCC(=O)O)NC(=O)[C@H](CC(=O)O)NC(=O)[C@H](CC(C)C)NC(=O)[C@H](Cc1ccc(O)cc1)NC(=O)[C@H](CCCCN)NC(=O)[C@H](CO)NC(=O)[C@H](Cc1ccc(O)cc1)NC(=O)[C@H](CC(=O)O)NC(=O)[C@H](CO)NC(=O)[C@@H](NC(=O)[C@H](Cc1ccccc1)NC(=O)[C@@H](NC(=O)CNC(=O)[C@H](CCC(N)=O)NC(=O)[C@@H](CO)NC(=O)[C@@H](N)Cc1c[nH]cn1)[C@@H](C)O)[C@@H](C)O)C(=O)N[C@@H](CC(=O)O)C(=O)N[C@@H](Cc1ccccc1)C(=O)N[C@H](C(=O)N[C@@H](CCC(N)=O)C(=O)N[C@@H](Cc1c[nH]c2ccccc12)C(=O)N[C@@H](CC(C)C)C(=O)N[C@@H](CCSC)C(=O)N[C@@H](CC(N)=O)C(=O)N[C@H](C(=O)N[C@@H](CCCCN)C(N)=O)[C@@H](C)O)C(C)C)C(=O)O)C(=O)O [OXM410] (H-H[dS]QGTFTSDYSKYLDERRAK([γGlu-γGlu-Palmitoyl])DFVQWLMNTK-NH2; N-terminus assumed)
EC50 [2]: > 10000 nM

Molecule: CCCCCCCCCCCCCCCC(=O)N[C@@H](CCC(=O)N[C@@H](CCC(=O)NCCCC[C@H](NC(=O)[C@H](CC(=O)O)NC(=O)[C@H](CO)NC(=O)[C@@H](NC(=O)[C@H](Cc1ccccc1)NC(=O)[C@@H](NC(=O)CNC(=O)[C@H](CCC(N)=O)NC(=O)[C@@H](CO)NC(=O)[C@@H](N)Cc1c[nH]cn1)[C@@H](C)O)[C@@H](C)O)C(=O)N[C@@H](CO)C(=O)N[C@@H](CCCCN)C(=O)N[C@@H](Cc1ccc(O)cc1)C(=O)N[C@@H](CC(C)C)C(=O)N[C@@H](CC(=O)O)C(=O)N[C@@H](CCC(=O)O)C(=O)N[C@@H](CCCNC(=N)N)C(=O)N[C@@H](CCCNC(=N)N)C(=O)N[C@@H](C)C(=O)N[C@@H](CCC(N)=O)C(=O)N[C@@H](CC(=O)O)C(=O)N[C@@H](Cc1ccccc1)C(=O)N[C@H](C(=O)N[C@@H](CCC(N)=O)C(=O)N[C@@H](Cc1c[nH]c2ccccc12)C(=O)N[C@@H](CC(C)C)C(=O)N[C@@H](CCSC)C(=O)N[C@@H](CC(N)=O)C(=O)N[C@H](C(=O)N[C@@H](CCCCN)C(N)=O)[C@@H](C)O)C(C)C)C(=O)O)C(=O)O [OXM411] (H-H[dS]QGTFTSDK([γGlu-γGlu-Palmitoyl])SKYLDERRAQDFVQWLMNTK-NH2; N-terminus assumed)
pI [3]: 5.4
EC50 [2]: > 10000 nM

Molecule: HαQGTFTSDYSC3YLDSRRAQDFVQWLmNTKRNRNNIA-CONH2 (H[Aib]QGTFTSDYSC(mPEG2 40kDa)YLDSRRAQDFVQWL[Met(O)]NTKRNRNNIA-NH2; not fully specified; printed as HαQGTFTSDYSC3YLDSRRAQDFVQWLmNTKRNRNNIA-CONH2) [OXM124]
Receptor Selectivity (hGCGR [4]; GLP-1R/GCGR, Table 6): 0/0

Second part, the molecule after the results:

EC50 (hGCGR [1]): 0.006 nM
Molecule: CCCCCCCCCCCCCC(=O)N[C@@H](CCC(=O)N[C@@H](CCC(=O)NCCCC[C@H](NC(=O)[C@H](CC(=O)O)NC(=O)[C@H](CO)NC(=O)[C@@H](NC(=O)[C@H](Cc1ccccc1)NC(=O)[C@@H](NC(=O)CNC(=O)[C@H](CCC(N)=O)NC(=O)[C@@H](CO)NC(=O)[C@@H](N)Cc1c[nH]cn1)[C@@H](C)O)[C@@H](C)O)C(=O)N[C@@H](CO)C(=O)N[C@@H](CCCCN)C(=O)N[C@@H](Cc1ccc(O)cc1)C(=O)N[C@@H](CC(C)C)C(=O)N[C@@H](CC(=O)O)C(=O)NC(C)(C)C(=O)N[C@@H](CCCNC(=N)N)C(=O)N[C@@H](CCCNC(=N)N)C(=O)N[C@@H](C)C(=O)N[C@@H](CCC(N)=O)C(=O)N[C@@H](CC(=O)O)C(=O)N[C@@H](Cc1ccccc1)C(=O)N[C@H](C(=O)N[C@@H](CCC(N)=O)C(=O)N[C@@H](Cc1c[nH]c2ccccc12)C(=O)N[C@@H](CC(C)C)C(=O)N[C@@H](CCSC)C(=O)N[C@@H](CC(N)=O)C(=O)N[C@H](C(=O)N[C@@H](CCCCN)C(=O)N[C@@H](CCC(N)=O)C(=O)O)[C@@H](C)O)C(C)C)C(=O)O)C(=O)O [MM121]

EC50 (hGCGR [1]): 0.004 nM
Molecule: CCCCCCCCCCCCCCCCCC(=O)N[C@@H](CCC(=O)N[C@@H](CCC(=O)NCCCC[C@H](NC(=O)[C@H](CC(=O)O)NC(=O)[C@H](CO)NC(=O)[C@@H](NC(=O)[C@H](Cc1ccccc1)NC(=O)[C@@H](NC(=O)CNC(=O)[C@H](CCC(N)=O)NC(=O)[C@@H](CO)NC(=O)[C@@H](N)Cc1c[nH]cn1)[C@@H](C)O)[C@@H](C)O)C(=O)N[C@@H](CO)C(=O)N[C@@H](CCCCN)C(=O)N[C@@H](Cc1ccc(O)cc1)C(=O)N[C@@H](CC(C)C)C(=O)N[C@@H](CC(=O)O)C(=O)NC(C)(C)C(=O)N[C@@H](CCCNC(=N)N)C(=O)N[C@@H](CCCNC(=N)N)C(=O)N[C@@H](C)C(=O)N[C@@H](CCC(N)=O)C(=O)N[C@@H](CC(=O)O)C(=O)N[C@@H](Cc1ccccc1)C(=O)N[C@H](C(=O)N[C@@H](CCC(N)=O)C(=O)N[C@@H](Cc1c[nH]c2ccccc12)C(=O)N[C@@H](CC(C)C)C(=O)N[C@@H](CCSC)C(=O)N[C@@H](CC(N)=O)C(=O)N[C@H](C(=O)N[C@@H](CCCCN)C(=O)N[C@@H](CCC(N)=O)C(=O)O)[C@@H](C)O)C(C)C)C(=O)O)C(=O)O [MM132]

pI [3]: 5.5
EC50 (hGCGR [4]; hGCGR + 20% plasma EC50, Table 10, 20% plasma): 0.4 nM
Molecule: CCCCCCCCCCCCCCCC(=O)N[C@@H](CCC(=O)N[C@@H](CCC(=O)NCCCC[C@H](NC(=O)[C@H](CC(=O)O)NC(=O)[C@H](CO)NC(=O)[C@@H](NC(=O)[C@H](Cc1ccccc1)NC(=O)[C@@H](NC(=O)CNC(=O)[C@H](CCC(N)=O)NC(=O)C1(NC(=O)[C@@H](N)Cc2c[nH]cn2)CCC1)[C@@H](C)O)[C@@H](C)O)C(=O)N[C@@H](CO)C(=O)N[C@@H](CCCCN)C(=O)N[C@@H](Cc1ccc(O)cc1)C(=O)N[C@@H](CC(C)C)C(=O)N[C@@H](CC(=O)O)C(=O)N[C@@H](CCC(=O)O)C(=O)N[C@@H](CCCNC(=N)N)C(=O)N[C@@H](CCCNC(=N)N)C(=O)N[C@@H](C)C(=O)N[C@@H](CCC(N)=O)C(=O)N[C@@H](CC(=O)O)C(=O)N[C@@H](Cc1ccccc1)C(=O)N[C@H](C(=O)N[C@@H](CCC(N)=O)C(=O)N[C@@H](Cc1c[nH]c2ccccc12)C(=O)N[C@@H](CC(C)C)C(=O)N[C@@H](CCSC)C(=O)N[C@@H](CC(N)=O)C(=O)N[C@H](C(=O)N[C@@H](CCCCN)C(N)=O)[C@@H](C)O)C(C)C)C(=O)O)C(=O)O [OXM417] (H-H[Ac4c]QGTFTSDK([γGlu-γGlu-Palmitoyl])SKYLDERRAQDFVQWLMNTK-NH2)

Source: patent US9593155B2, “Oxyntomodulin analogs” (priority 2009, dated 2017)
